# In US20120220580A1, “PREPARATION OF CAROTENOID DERIVATIVES AND THEIR APPLICATIONS” (BEIJING GINGKO GROUP BIOLOGICAL TECHNOLOGY CO., LTD., priority 2009, published 2012):
# Where a name gives a salt, the structure may show the parent alone.
# Columns and labels:
# nutritional obesity rats [1] = assay: Body weight of nutritional obesity rats on high-fat feed, intragastric drug for 30 d (Example 17); format: in vivo, rat; details: x ± s; for Body weight(g) (After-experiment) / Body weight(g) increased: Table 1, high-fat feed; for Body weight(g) (After-experiment): after 30 d intragastric administration; for Body weight(g) increased: increase over 30 d of administration; for Body weight(g) (After-experiment): test concentration or dose not given here; for Body weight(g) increased: test concentration or dose not given here
# Experimental: (§1) Fucoxanthin group and test animal groups were administrated with same doses of the drugs. The basal feed control group continued to be fed with basal feed, other groups with high-fat feed. The basal feed- and model control groups were intragastric administrated with distilled water, the other, drug-administrated groups with respective doses of drug, the administration were carried out uninterruptedly for 30 d. Each group of the animals were bred in different hutches, the room temperature was controlled within (22±2)° C., using natural illumination, the animals took food and drank freely. The body weights of the animals were measured one time each week, feed-intakes of the rats were also observed and recorded. After 30 days the rats were weighed. Statistical analysis: Variance analysis of the data collected in this experiment was implemented by SAS software package, Dunnett's t-test was used for inter-group comparative analysis, p<0.05 was used as the criterion of statistical significance.
# nutritional obesity rats [2] = assay: Weight of fat pads around testicles of nutritional obesity rats (Example 18); format: in vivo, rat; details: after 30 d administration, x ± s; for Body weight(g) (After-experiment): Table 2
# Experimental: as §1, with “significance. Experimental procedures were the same as in Example 17. […] Statistical analysis was the same as in Example 16.” for “significance.”
# [3] = test system: nutritional obesity model rats; assay: Weight of fat pads around kidneys of nutritional obesity model rats (Example 19); format: in vivo, rat; details: after 30 d administration, x ± s; for Body weight(g) (After-experiment): Table 3
# Experimental: as §1, with “significance. Experimental procedures were the same as in Example 17. […] Statistical analysis was the same as in Example 16.” for “significance.”
# nutritional obesity rats [4] = assay: Weight of abdomen fat of nutritional obesity rats (Example 20); format: in vivo, rat; details: after 30 d administration, x ± s; for Body weight(g) (After-experiment): Table 4
# Experimental: as §1, with “significance. Experimental procedures were the same as in Example 17. […] Statistical analysis was the same as in Example 16.” for “significance.”
# lab mice = details: fucoxanthin as an additive in condensed food, experimental animals; cited from earlier work; note: test concentration or dose not given here
Compound,Body weight(g) (After-experiment) (nutritional obesity rats [1]),Body weight(g) increased (nutritional obesity rats [1]),Body weight(g) (After-experiment) (nutritional obesity rats [2]),Weight fat pads around testicles(g) (nutritional obesity rats [2]),Weight fat pads around testicles/bw × 100 (nutritional obesity rats [2]),Body weight(g) (After-experiment) [3],Weight fat pads around kidneys(g) [3],Weight fat pads around kidneys/bw × 100 [3],Body weight(g) (After-experiment) (nutritional obesity rats [4]),Weight abdomen fat/bw × 100 (nutritional obesity rats [4]),Weight. abdomenfat (g) (nutritional obesity rats [4]),other results
"CC(=O)OC1CC(C)(C)C(=C=C/C(C)=C/C=C/C(C)=C/C=C/C=C(C)/C=C/C=C(\C)C(=O)CC23OC2(C)CC(O)CC3(C)C)[C@](C)(O)C1 (stereo partly drawn) [fucoxanthin, 3′-(Acetyloxy)-6′,7′-didehydro-5,6-epoxy-5,5′,6,6′,7,8-hexahydro-3,5′-dihydroxy-8-oxo-β,β-carotene, reference compound]",531.00 ± 20.32Δ g,43.68 ± 19.13Δ g,531.00 ± 20.32 g,7.32 ± 0.83Δ g,1.38 ± 0.11Δ,531.00 ± 20.32 g,7.42 ± 0.60Δ g,1.42 ± 0.12Δ,531.00 ± 20.32 g,1.81 ± 0.13Δ,9.61 ± 0.12ΔΔ g,"addiction or other side effects (lab mice): would not induce the addiction of the experimental animals, or had any other side effects"
"CC(=O)OC1CC(C)(C)C(=C=C/C(C)=C/C=C/C(C)=C/C=C/C=C(C)/C=C/C=C(\C)C(=O)CC23OC2(C)CC(OC(=O)CCC(=O)O)CC3(C)C)[C@@](C)(O)C1 (stereo partly drawn) [compound 2, fucoxanthin succinate]",,,512.1 ± 21.00 g,6.00 ± 0.11ΔΔ g,1.18 ± 0.13ΔΔ,,,,516.03 ± 12.15 g,1.31 ± 0.12ΔΔ,6.76 ± 0.22ΔΔ g,
"C\C(C=C=C1C(C)(C)CC(OC(=O)N2CCOCC2)C[C@@]1(C)O)=C/C=C/C(C)=C/C=C/C=C(C)/C=C/C=C(\C)C(=O)CC12OC1(C)CC(OC(=O)N1CCOCC1)CC2(C)C (stereo partly drawn) [compound 12, fucoxanthol bi-morpholino carbamate]",500.01 ± 20.10ΔΔ g,12.12 ± 1.25ΔΔ g,,,,,,,,,,
"CC(=O)OC1CC(C)(C)C(=C=C/C(C)=C/C=C/C(C)=C/C=C/C=C(C)/C=C/C=C(\C)C(=O)CC23OC2(C)CC(OC(=O)CCCN(C)C)CC3(C)C)[C@](C)(O)C1 (stereo partly drawn) [compound 9, fucoxanthin di-methylaminobutyrate]",,,,,,514.13 ± 13.00 g,5.00 ± 0.23ΔΔ g,0.98 ± 0.11ΔΔ,,,,
fucoxanthin citrate sodium salt [compound 6],507.00 ± 20.11ΔΔ g,20.32 ± 1.21ΔΔ g,,,,,,,,,,"Body weight(g) (before-experiment) (nutritional obesity rats [1]; SD male rats, after 1 month high-fat feed, before drug administration (baseline), 10 rats per group): 485.89 ± 18.99 g"
"CC(=O)OC1CC(C)(C)C(=C=C/C(C)=C/C=C/C(C)=C/C=C/C=C(C)/C=C/C=C(\C)C(=O)CC23OC2(C)CC(OC(=O)CC(O)(CC(=O)OC[C@H](O)[C@H]2OC(=O)C(O)=C2O)C(=O)O)CC3(C)C)[C@](C)(O)C1 (stereo partly drawn) [compound 7, fucoxanthincitrate5-vitamin C ester]",506.00 ± 19.07ΔΔ g,18.21 ± 1.12ΔΔ g,,,,,,,,,,
"CC(=O)OC1CC(C)(C)C(=C=C/C(C)=C/C=C/C(C)=C/C=C/C=C(C)/C=C/C=C(\C)C(=O)CC23OC2(C)CC(OC(=O)[C@@H](O)[C@H](O)C(=O)O)CC3(C)C)[C@](C)(O)C1 (stereo partly drawn) [compound 11, fucoxanthin tartrate]",515.00 ± 18.90ΔΔ g,29.25 ± 1.23ΔΔ g,,,,,,,515.00 ± 18.90 g,1.40 ± 0.13ΔΔ,7.21 ± 0.23ΔΔ g,
"CC(=O)OC1CC(C)(C)C(=C=C/C(C)=C/C=C/C(C)=C/C=C/C=C(C)/C=C/C=C(\C)C(=O)CC23OC2(C)CC(OC(=O)CCC(=O)Oc2ccc(/C=C/c4cc(O)cc(O)c4)cc2)CC3(C)C)[C@@](C)(O)C1 (stereo partly drawn) [compound 14, fucoxanthin resveratrol succinate]",514.00 ± 22.22ΔΔ g,28.52 ± 1.21ΔΔ g,514.00 ± 22.22 g,5.00 ± 0.12ΔΔ g,0.90 ± 0.12ΔΔ,,,,,,,
"CC(=O)OC1CC(C)(C)C(=C=C/C(C)=C/C=C/C(C)=C/C=C/C=C(C)/C=C/C=C(\C)C(=O)CC23OC2(C)CC(OC(=O)CNC(=O)C(CS)NC(=O)CCC(N)C(=O)O)CC3(C)C)[C@](C)(O)C1 (stereo partly drawn) [compound 10, fucoxanthin glutathione ester]",,,,,,522.08 ± 18.11 g,4.00 ± 0.40ΔΔ g,0.75 ± 0.11ΔΔ,517.00 ± 11.23 g,1.50 ± 0.14ΔΔ,7.75 ± 0.20ΔΔ g,
"CC(=O)OC1CC(C)(C)C(=C=C/C(C)=C/C=C/C(C)=C/C=C/C=C(C)/C=C/C=C(\C)C(=O)CC23OC2(C)CC(OC(=O)CC(O)(CC(=O)O)C(=O)O)CC3(C)C)[C@](C)(O)C1 (stereo partly drawn) [compound 1, fucoxanthin citrate]",515.00 ± 29.21ΔΔ g,28.50 ± 1.15ΔΔ g,,,,,,,,,,
"CC(=O)OC1CC(C)(C)C(=C=C/C=C/C=C/C(C)=C/C=C/C=C(C)/C=C/C=C(\C)C(=O)CC23OC2(C)CC(OC(=O)CCC(=O)OC[C@H](O)[C@H]2OC(=O)C(O)=C2O)CC3(C)C)[C@@](C)(O)C1 (stereo partly drawn) [compound 4, fucoxanthin succinate-4-vitamin C ester]",514.00 ± 30.22ΔΔ g,27.41 ± 1.21ΔΔ g,514.00 ± 30.22 g,4.00 ± 0.14ΔΔ g,0.70 ± 0.21ΔΔ,,,,514.00 ± 30.22 g,0.80 ± 0.11ΔΔ,4.11 ± 0.14ΔΔ g,
fucoxanthin succinate 4-vitamin Cester sodium salt [compound 5],,,,,,513.15 ± 11.00 g,7.00 ± 0.32ΔΔ g,1.12 ± 0.10ΔΔ,504.01 ± 18.23 g,0.71 ± 0.10ΔΔ,3.58 ± 0.21ΔΔ g,
"CC(=O)OC1CC(C)(C)C(=C=C/C(C)=C/C=C/C(C)=C/C=C/C=C(C)/C=C/C=C(\C)C(=O)CC23OC2(C)CC(OC(=O)CCC(=O)O)CC3(C)C)[C@@](C)(O)C1 (stereo partly drawn) [compound 3, fucoxanthin succinate sodium salt]",,,,,,,,,,,,Body weight(g) (After-experiment) (nutritional obesity rats [2]; succinate sodium salt): 513.1 ± 19.13 g; Weight fat pads around testicles(g) (nutritional obesity rats [2]; succinate sodium salt): 7.00 ± 0.13ΔΔ g; Weight fat pads around testicles/bw × 100 (nutritional obesity rats [2]; succinate sodium salt): 1.20 ± 0.10ΔΔ
"CC(=O)OC1CC(C)(C)C(=C=C/C(C)=C/C=C/C(C)=C/C=C/C=C(C)/C=C/C=C(\C)C(=O)CC23OC2(C)CC(OC(=O)/C=C(/CC(=O)O)C(=O)O)CC3(C)C)[C@](C)(O)C1 (stereo partly drawn) [compound 8, fucoxanthin aconitate]",,,,,,518.18 ± 15.21 g,4.40 ± 0.34ΔΔ g,0.85 ± 0.12ΔΔ,,,,
"CCCCC/C=C\C/C=C\CCCCCCCC(=O)OC1CC(C)(C)C2(CC(=O)/C(C)=C/C=C/C(C)=C/C=C/C=C(C)/C=C/C=C(\C)C=C=C3C(C)(C)CC(OC(C)=O)C[C@@]3(C)O)OC2(C)C1 (stereo partly drawn) [compound 15, fucoxanthin linoleate]",,,520.01 ± 16.88 g,6.34 ± 0.55ΔΔ g,1.22 ± 0.11ΔΔ,,,,,,,
